Source: patent publication US20250049962A1, “NEAR-INFRARED FLUORESCENT CONTRAST BIOIMAGING AGENTS FOR IMAGING OF SENTINEL LYMPH NODES” (Curadel Surgical Innovations, Inc., priority 2021, published 2025)
“Also recorded” adds a separate entry of the source.

Assays:
[1] = Lymph flow imaging after intradermal peri-tail injection; format: in vivo, CD-1 mice; details: until 15 minutes post injection, ICG at 800 nm, FIG. 4
Procedure: The same procedure was used using intradermal peri-tail injections to visual lymph flow until 15 minutes post injection at which point the animal was sacrificed. […] The arrow with the circle indicates the first-tier node.

[2] = Biodistribution and clearance 4 hours after intravenous injection; format: in vivo, CD-1 mice; details: 4 hours post iv injection
Procedure: (§1) All foot pad injections and intravenous injections were 10 μL of each of these 500 μM concentrations for a total of 5 nmol per injection.
In order to show the biodistribution benefits of ICB, the same procedure was used using intravenous injections. After 4 hours animals were sacrificed, and the target tissue and other major organs including heart, lung, liver, spleen, pancreas, kidneys, duodenum, intestine, and muscle were resected to quantify biodistribution and clearance. A biodistribution analysis of all three dyes at 4 hours post iv injection.

[3] = SLN imaging after footpad injection, NIR fluorescence imaging; format: in vivo, CD-1 mice
Text: Neae Infrared fluorescence imaging can be achieved using a number of commercially available imaging systes. For example, the dual-NIR channel FLARE imaging system has been described in detail. It provides simultaneous illumination with white light (400-650 nm) at 40,000 lx, 660 nm NIR Channel 1 excitation at 4 mW/cm^2 and […] NIR Channel 2 excitation at 10 mW/cm^2. Color and two independent NIR fluorescence emission images (≈700 nm for Channel 1 and ≈800 nm for Channel 2) were acquired simultaneously with custom software at rates up to 15 Hz over a 15 cm diameter field of view. NIR fluorescence from Channel 1 was pseudo-colored in red and NIR fluorescence from Channel 2 was pseudo-colored in lime green prior to merger with the color video image. The imaging system was positioned at a distance of 18 inches from the surgical field.
as §1
Sentinel lymph nodes were observed a near infrared (NIR) imaging system.
The target tissue was exposed and the SLN was imaged for NIR fluorescence using dual channels [Channel 1 (700 nm) and Channel 2 (800 nm)] of a NIR imaging system.

[4] = Solubility measurement; format: physicochemical
Procedure: However, the contrast agent is soluble in mixtures of water and ethanol. […] After mixing for an extended period, the solutions were filtered using a 0.45 um spin filter. The solvent of known volumes was then removed by evaporation and solubility was determined by measuring the remaining solids in the pre-measured evaporating flask.

Row | Compound | LN skipping [1] | signal in the large intestine ([2]; 5 nmol) | signal in the stomach ([2]; 5 nmol) | leakage / flow through from sentinel lymph nodes ([3]; 5 nmol footpad injection, CD-1 mice) | first-tier/second-tier signal-to-background ratio ([3]; 15 minutes post-injection, 5 nmol footpad injection, CD-1 mice) | brightness of visualization ([3]; compared to SLN700, 700 nm) | liver (hepatic) clearance observed by the imaging ([3]; footpad injection, CD-1 mice) | route of clearance [2] | signal in the kidneys ([2]; 5 nmol) | solubility ([4]; D5W) | solubility ([4]; water)
1 | CC1(C)C(/C=C/C=C/C=C/C=C2\N(CCCCS(=O)(=O)O)c3ccc4ccccc4c3C2(C)C)=[N+](CCCCS(=O)(=O)[O-])c2ccc3ccccc3c21 [ICG, indocyanine green, reference compound] | significant LN skipping | enhanced signal | to lesser extent |  |  |  |  |  |  |  | 
2 | 4-[(2Z)-2-[(2E,4E)-5-[3,3-dimethyl-1-(4-sulfobutyl) indol-1-ium-2-yl]penta-2,4-dienylidene]-3,3-dimethylindol-1-yl]butane-1-sulfonic acid [ICB] |  | enhanced signal | to lesser extent | considerably less leakage over ICG or SLN700; also recorded: little to no significant flow through | 5.4±1.6 | brighter | Visible liver (hepatic) clearance | completely cleared by the liver | Minimal signal | at least 10 mg/mL | at least 10 mg/mL
